Values of other authors as cited in US20190298799A1, “CONTROLLED-RELEASE APOPTOSIS MODULATING COMPOSITIONS AND METHODS FOR THE TREATMENT OF OTIC DISORDERS” (Otonomy, Inc., priority 2008, published 2019).

Experiments:
[1] = test system: cochlear culture; details: culture first treated with the inhibitor, then neomycin and/or cisplatin
[2] = test system: neurons and otic hair cells

SMILES	apoptosis in cochlear culture [1]	protection from aminoglycoside ototoxicity [2]
C[S+]([O-])c1ccc(-c2nc(-c3ccc(F)cc3)c(-c3ccncc3)[nH]2)cc1 (centres unmarked) [SB-203580, 4-(4-Fluorophenyl)-2-(4-methylsulfinylphenyl)-5-(4-pyridyl) 1H-imidazole]	apoptosis is decreased	
CC(=O)N[C@@H](CC(C)C)C(=O)N[C@@H](CC(C)C)C(=O)N[C@H](C=O)CCCNC(=N)N [Leupeptine, leupeptine]		protects neurons and otic hair cells from aminoglycoside ototoxicity
